Measured values: article PMC9960553, ““Dual Anta-Inhibitors” of the A2A Adenosine Receptor and Casein Kinase CK1delta: Synthesis, Biological Evaluation, and Molecular Modeling Studies” (Pharmaceuticals, 2023)
“And” between values parts separate entries of the source, which are not always exact repeats. Equal values may be shown once.

Columns and labels:
truncated CK1δ = molecular target: T1, truncated CK1δ (Homo sapiens, UniProt P48730); test: CK1δ luminescent kinase assay (Kinase-Glo); assay type: biochemical; settings: for remaining activity at 10 µM: read-out: % Residual Activity at 10 μM ± sd; for remaining activity at 40 µM: compound at 40 μM, read-out: % Residual Activity at 40 μM ± sd; for IC50: truncated CK1δ, ATP 2 μM, read-out: IC50 (μM), CK1δ inhibition
T1 construct: recombinant human, GST-tagged, aa 1-294; GST; purchased Merck Millipore, Merck KGaA, Darmstadt, Germany
T1 sequence (P48730 1-294): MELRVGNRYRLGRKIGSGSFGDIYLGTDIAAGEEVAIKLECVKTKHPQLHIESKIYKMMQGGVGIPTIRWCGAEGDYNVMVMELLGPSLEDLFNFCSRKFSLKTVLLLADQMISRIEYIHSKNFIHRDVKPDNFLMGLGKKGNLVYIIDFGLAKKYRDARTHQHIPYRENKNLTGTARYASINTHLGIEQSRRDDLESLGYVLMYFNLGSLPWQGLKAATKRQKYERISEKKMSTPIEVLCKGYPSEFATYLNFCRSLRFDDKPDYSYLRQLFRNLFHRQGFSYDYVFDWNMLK
Procedure: Luminescent assays were performed in white 96-well plates in a 40 μL final volume with buffer containing 50 mM HEPES (pH 7.5), 1 mM EDTA, 1 mM EGTA, and 15 mM MgCl2. In a typical assay, 10 μL of inhibitor solution (desired concentrations were obtained by diluting a starting 10 mM solution in DMSO) and 10 μL of enzyme solution were added to the well, followed by 20 μL of assay buffer containing casein substrate (Sigma-Aldrich, Merck KGaA, Darmstadt, Germany, casein solution from bovine milk, 5% in water) and ATP, at a final concentration of 0.05% and 2 μM, respectively. […] After 60 min of incubation at 30 °C, the enzymatic reactions were stopped with the addition of 40 μL of KinaseGlo reagent. […] Data were analyzed using Excel and GraphPad Prism software (version 8.0).

human recombinant A2AAR = molecular target: T2, human recombinant A2AAR (Homo sapiens, UniProt P29274); test: [3H]NECA displacement binding in CHO cell membranes; settings: mean ± standard error, read-out: KiA2A
T2 construct: expressed in transfected cells; host or cells: CHO cells (membranes)
T2 sequence (P29274 whole entry): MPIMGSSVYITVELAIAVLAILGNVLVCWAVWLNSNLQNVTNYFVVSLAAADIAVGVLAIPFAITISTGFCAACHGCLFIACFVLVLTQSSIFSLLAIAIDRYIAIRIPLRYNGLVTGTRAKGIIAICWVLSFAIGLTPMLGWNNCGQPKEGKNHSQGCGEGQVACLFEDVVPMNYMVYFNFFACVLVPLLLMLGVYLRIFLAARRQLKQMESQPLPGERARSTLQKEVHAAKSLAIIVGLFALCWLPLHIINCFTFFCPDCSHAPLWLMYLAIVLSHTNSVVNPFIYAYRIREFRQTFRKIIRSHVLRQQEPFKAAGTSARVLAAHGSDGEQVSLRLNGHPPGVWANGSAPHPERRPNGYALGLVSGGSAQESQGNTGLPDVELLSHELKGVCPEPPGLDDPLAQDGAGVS
Procedure: (§1) Compounds 5, 6, 8–12, 15–21, and 23–25 were evaluated in binding studies at human recombinant A1, A2A, and A3 ARs, stably transfected in Chinese hamster ovary (CHO) cells. [^3H]CCPA (2-chloro-N^6-cyclopentylAdo), [^3H]NECA (5’-N-ethylcarboxamidoAdo), and [^3H]HEMADO (2-hexynyl-N^6-methylAdo) were used as the, respective, radioligands. All compounds were also tested at the A2BARs by inhibition of NECA-stimulated adenylyl cyclase activity, using the GloSensor cAMP assay, but none of them were active at a concentration up to 30 μM [35]. The results, together with the data of the reference adenine derivative 1, are reported in Table 2 as Ki values in μM (± standard errors). In the table, the IC50 values (μM) of the CK1δ inhibitory activity are also indicated. […] We called the compounds endowed with receptor antagonist behavior combined with an enzyme inhibitory activity “dual anta-inhibitors”.
(§2) All of the pharmacological methods followed the procedures as described earlier. In brief, the membranes for radioligand binding were prepared from CHO cells stably transfected with human adenosine receptor subtypes through two centrifugations at different speeds. The first low-speed […] centrifugation allowed for the removal of cell fragments and nuclei, while the second, performed at high speed (100,000× g), allowed for the precipitation of the crude membrane fractions. The resulting membrane pellet was resuspended in the buffer used for the respective binding experiments, frozen in liquid nitrogen, and stored in aliquots at −80 °C.
(§3) The binding affinity of the novel compounds was evaluated using radioligand competition experiments in CHO cells stably expressing hA1AR, hA2AAR, hA3AR subtypes, as early described. Results were expressed as Ki values (dissociation constants), which were calculated with the program GraphPad (GraphPad Software, San Diego, CA, USA). Each concentration was tested three–five times in duplicate and the values given as the mean ± standard error (S.E.). The potency of compounds at the hA2BAR (expressed on CHO cells) was determined through a GloSensor cAMP Assay.

human recombinant A1AR = molecular target: T3, human recombinant A1AR (Homo sapiens, UniProt P30542); test: [3H]CCPA displacement binding in CHO cell membranes; settings: mean ± standard error, read-out: KiA1
T3 construct: expressed in transfected cells; host or cells: CHO cells (membranes)
T3 sequence (P30542 1-326): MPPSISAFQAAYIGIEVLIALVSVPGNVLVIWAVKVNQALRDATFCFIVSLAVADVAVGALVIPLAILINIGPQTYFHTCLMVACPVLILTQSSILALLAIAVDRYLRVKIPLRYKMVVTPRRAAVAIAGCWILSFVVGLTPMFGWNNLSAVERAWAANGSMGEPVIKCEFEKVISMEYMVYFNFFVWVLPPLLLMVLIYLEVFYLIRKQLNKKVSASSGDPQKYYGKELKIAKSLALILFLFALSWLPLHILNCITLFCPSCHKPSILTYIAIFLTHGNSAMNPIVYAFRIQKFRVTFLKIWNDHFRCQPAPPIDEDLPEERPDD
Procedure: as §1, §2, §3

human recombinant A3AR = molecular target: T4, human recombinant A3AR (Homo sapiens, UniProt P0DMS8); test: [3H]HEMADO displacement binding in CHO cell membranes; settings: mean ± standard error, read-out: KiA3
T4 construct: expressed in transfected cells; host or cells: CHO cells (membranes)
T4 sequence (P0DMS8 1-318): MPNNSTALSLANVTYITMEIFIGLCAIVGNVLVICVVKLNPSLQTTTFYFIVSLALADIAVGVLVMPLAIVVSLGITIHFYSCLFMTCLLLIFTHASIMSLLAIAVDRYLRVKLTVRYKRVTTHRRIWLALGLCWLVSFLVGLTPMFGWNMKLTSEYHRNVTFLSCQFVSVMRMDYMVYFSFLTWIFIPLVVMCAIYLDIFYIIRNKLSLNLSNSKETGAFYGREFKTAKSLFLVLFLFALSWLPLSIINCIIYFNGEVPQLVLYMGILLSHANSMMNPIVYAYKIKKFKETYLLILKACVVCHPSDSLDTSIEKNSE
Procedure: as §1, §2, §3

[1] = CK1δ residual activity, compound at 10 μM

Row | Structure (SMILES) | remaining activity at 10 µM (truncated CK1δ; [1]) [%] | remaining activity at 40 µM (truncated CK1δ; CK1δ residual activity) [%] | IC50 (truncated CK1δ) | melting point [°C] | Ki (human recombinant A2AAR) [nM] | Ki (human recombinant A1AR) [nM] | % Residual Activity at 10 μM ± sd (truncated CK1δ; CK1δ residual activity, compound at 10 μM, 10 µM) [%] | Ki (human recombinant A3AR) [nM]
1 | Nc1nc(Cl)nc2c1ncn2C1CCC1 [Compound 5, 2-chloro-9-cyclobutyl-9H-purin-6-amine] | 37 ± 3.8 | 43 ± 3.2 | 5.25 ± 0.9 µM | 117 to 119 | 558 ± 151 | 1530 ± 265 | – | –
2 | Nc1nc(Cl)nc2c1ncn2C1CCCCC1 [Compound 6, 2-chloro-9-cyclohexyl-9H-purin-6-amine] | > 50 | 30 ± 0.2 | > 10 µM | 125 to 126 | – | – | 52 ± 3.0 | –
3 | Clc1nc(NCc2nc3ccccc3[nH]2)c2ncn(C3CCCC3)c2n1 [Compound 15, N-((1H-benzo[d]imidazol-2-yl)methyl)-2-chloro-9-cyclopentyl-9H-purin-6-amine] | 24 ± 14 | 22 ± 13 | 1.53 ± 0.4 µM | – | 3260 ± 626 | > 30000 | – | 1138 ± 4
4 | c1ccc(CNc2nc(NCc3nc4ccccc4[nH]3)c3ncn(C4CCCC4)c3n2)cc1 [Compound 16, N^6-((1H-benzo[d]imidazol-2-yl)methyl)-N^2-benzyl-9-cyclopentyl-9H-purine-2,6-diamine] | 26 ± 7.6 | 46 ± 31 | 4.76 ± 0.3 µM | – | 718 ± 149 | > 30000 | – | 432 ± 25
5 | Nc1nc(Cl)nc2c1nc(-c1cccs1)n2C1CCCC1 [Compound 9, 2-chloro-9-cyclopentyl-8-(thiophen-2-yl)-9H-purin-6-amine] | – | 90 ± 4.6 | > 40 µM | 158 to 159 | 36 ± 9 | 53 ± 9 | – | 17 ± 2
6 | Nc1nc(Cl)nc2c1ncn2C1CCCC1 [Compound 1, 2-chloro-9-cyclopentyl-9H-purin-6-amine] | 13 ± 7.4 | 0.7 ± 0.4 | 5.25 µM and 5.2 µM | 121 to 122 | 465 ± 129 | 1890 ± 160 | – | 631 ± 62
7 | O=C(CNc1nc(Cl)nc2c1ncn2C1CCCC1)NCc1ccccc1 [Compound 20] | 32 ± 16 | 29 ± 12 | 1.87 ± 0.2 µM | – | > 30000 | > 30000 | – | –
8 | COC(=O)CNc1nc(Cl)nc2c1ncn2C1CCCC1 [Compound 19, Methyl (2-chloro-9-cyclopentyl-9H-purin-6-yl)glycinate] | 23 ± 2.4 | 44 ± 2.6 | 2.55 ± 0.2 µM | – | 13500 ± 980 | 20700 ± 1870 | – | 14800 ± 3010
9 | N#CCNc1nc(Cl)nc2c1ncn2C1CCCC1 [Compound 21, 2-((2-Chloro-9-cyclopentyl-9H-purin-6-yl)amino)acetonitrile] | 13 ± 24 | 25 ± 9.6 | 0.36 ± 0.1 µM | – | 3480 ± 312 | 8660 ± 1520 | – | 5960 ± 1020
10 | Clc1nc(NCCc2ccccc2)c2ncn(C3CCCC3)c2n1 [Compound 23, 2-chloro-N^6-(2-phenylethyl)-9-cyclopentyladenine] | 27 ± 20 | 14 ± 9.7 | 0.66 ± 0.2 µM | 100 to 101 | 1170 ± 37 | 1340 ± 279 | – | 151 ± 15
11 | Clc1ccc(CCNc2nc(Cl)nc3c2ncn3C2CCCC2)cc1 [Compound 25, 2-Chloro-N-(4-chlorophenethyl)-9-cyclopentyl-9H-purin-6-amine] | 31 ± 12 | 14 ± 4.3 | 1.69 ± 1 µM | – | 2650 ± 381 | 10800 ± 2040 | – | –
12 | O=C(NCc1ccccc1)Nc1nc(Cl)nc2c1ncn2C1CCCC1 [Compound 18, 1-Benzyl-3-(2-chloro-9-cyclopentyl-9H-purin-6-yl)urea] | 38 ± 6 | 29 ± 3.9 | 3.37 ± 2.5 µM | – | > 30000 | > 30000 | – | > 30000
13 | Nc1nc(NCCc2ccccc2)nc2c1ncn2C1CCCC1 [Compound 11, 9-Cyclopentyl-N^2-phenethyl-9H-purine-2,6-diamine] | – | 88 ± 2.9 | > 40 µM | – | 12 ± 3 | 580 ± 46 | – | 49 ± 8
14 | Nc1nc(NCc2ccccc2)nc2c1ncn2C1CCCC1 [Compound 10, N^2-benzyl-9-cyclopentyl-9H-purine-2,6-diamine] | 48 ± 3.5 | 30 ± 4.1 | 5.3 ± 1 µM | – | 157 ± 40 | 3960 ± 800 | – | 298 ± 47
15 | Clc1nc(NCCCc2ccccc2)c2ncn(C3CCCC3)c2n1 [Compound 24, 2-chloro-9-cyclopentyl-N-(3-phenylpropyl)-9H-purin-6-amine] | 26 ± 6.7 | 11 ± 19 | 0.73 ± 0.1 µM | 177 to 179 | 3340 ± 749 | 692 ± 88 | – | 1270 ± 289
